Source: patent US20250235543A1, “MODIFIED PROTEINS AND PROTEIN DEGRADERS” (Cullgen (Shanghai), Inc., priority 2021, published 2025)
Like-named read-outs stand apart in the source and are kept apart here.

How the values were obtained:
cyclin D1 = assay: Cyclin D1 percentage degradation in Calu-1 cells (immunoblotting); type: cell-based; details: 16 hours
Outline: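 Cyclin D1 degradation was assessed by western blot. Clarified lysates, obtained by RIPA lysis with inhibitors and centrifugation at 13,000 rpm, were normalized by BCA protein assay and separated by SDS-PAGE. Bands were detected with Western ECL Substrate on a Bio-Rad ChemiDoc MP Imaging system and quantified in Image Lab software to derive percentage degradation.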

CDK4 = target: T1, CDK4 (Homo sapiens, UniProt P11802); assay: CDK4 percentage degradation in Calu-1 cells (immunoblotting); type: cell-based; details: for inhibition at 0.2 µM: read-out: CDK4 Degradation (200 nM); for inhibition at 10 µM: read-out: CDK4 Degradation (10 μM)
T1 construct: endogenous in cells; host or cells: Calu-1
Outline: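 CDK4 degradation was measured by immunoblotting. Cells were washed in cold PBS and lysed in RIPA buffer with inhibitors for 30 min at 4° C., then spun at 13,000 rpm to clear. After BCA protein determination, lysates were heated at 99° C. for 5 min in Laemmli buffer, resolved on SDS-PAGE, imaged on a ChemiDoc MP with ECL substrate, and band intensities quantified.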

T1 sequence (P11802 2-303 limits assumed): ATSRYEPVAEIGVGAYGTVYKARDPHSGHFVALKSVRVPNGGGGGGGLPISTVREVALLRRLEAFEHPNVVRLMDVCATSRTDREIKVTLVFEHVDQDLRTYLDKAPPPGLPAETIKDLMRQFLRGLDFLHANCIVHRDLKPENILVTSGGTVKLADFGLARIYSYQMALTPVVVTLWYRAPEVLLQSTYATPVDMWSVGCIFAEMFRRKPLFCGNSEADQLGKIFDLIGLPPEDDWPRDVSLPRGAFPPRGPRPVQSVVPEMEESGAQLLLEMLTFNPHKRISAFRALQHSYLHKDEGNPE
T1 sequence (P24385 whole entry partner): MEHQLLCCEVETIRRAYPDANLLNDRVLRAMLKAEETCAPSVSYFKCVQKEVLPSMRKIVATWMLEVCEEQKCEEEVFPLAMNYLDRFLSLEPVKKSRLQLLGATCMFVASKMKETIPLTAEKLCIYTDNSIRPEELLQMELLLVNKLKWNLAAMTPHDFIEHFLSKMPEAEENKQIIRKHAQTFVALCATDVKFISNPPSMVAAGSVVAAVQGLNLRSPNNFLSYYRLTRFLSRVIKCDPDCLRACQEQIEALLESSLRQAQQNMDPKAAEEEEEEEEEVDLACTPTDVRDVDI
T1 sequence (Q16531 2-1140 limits assumed, further chain): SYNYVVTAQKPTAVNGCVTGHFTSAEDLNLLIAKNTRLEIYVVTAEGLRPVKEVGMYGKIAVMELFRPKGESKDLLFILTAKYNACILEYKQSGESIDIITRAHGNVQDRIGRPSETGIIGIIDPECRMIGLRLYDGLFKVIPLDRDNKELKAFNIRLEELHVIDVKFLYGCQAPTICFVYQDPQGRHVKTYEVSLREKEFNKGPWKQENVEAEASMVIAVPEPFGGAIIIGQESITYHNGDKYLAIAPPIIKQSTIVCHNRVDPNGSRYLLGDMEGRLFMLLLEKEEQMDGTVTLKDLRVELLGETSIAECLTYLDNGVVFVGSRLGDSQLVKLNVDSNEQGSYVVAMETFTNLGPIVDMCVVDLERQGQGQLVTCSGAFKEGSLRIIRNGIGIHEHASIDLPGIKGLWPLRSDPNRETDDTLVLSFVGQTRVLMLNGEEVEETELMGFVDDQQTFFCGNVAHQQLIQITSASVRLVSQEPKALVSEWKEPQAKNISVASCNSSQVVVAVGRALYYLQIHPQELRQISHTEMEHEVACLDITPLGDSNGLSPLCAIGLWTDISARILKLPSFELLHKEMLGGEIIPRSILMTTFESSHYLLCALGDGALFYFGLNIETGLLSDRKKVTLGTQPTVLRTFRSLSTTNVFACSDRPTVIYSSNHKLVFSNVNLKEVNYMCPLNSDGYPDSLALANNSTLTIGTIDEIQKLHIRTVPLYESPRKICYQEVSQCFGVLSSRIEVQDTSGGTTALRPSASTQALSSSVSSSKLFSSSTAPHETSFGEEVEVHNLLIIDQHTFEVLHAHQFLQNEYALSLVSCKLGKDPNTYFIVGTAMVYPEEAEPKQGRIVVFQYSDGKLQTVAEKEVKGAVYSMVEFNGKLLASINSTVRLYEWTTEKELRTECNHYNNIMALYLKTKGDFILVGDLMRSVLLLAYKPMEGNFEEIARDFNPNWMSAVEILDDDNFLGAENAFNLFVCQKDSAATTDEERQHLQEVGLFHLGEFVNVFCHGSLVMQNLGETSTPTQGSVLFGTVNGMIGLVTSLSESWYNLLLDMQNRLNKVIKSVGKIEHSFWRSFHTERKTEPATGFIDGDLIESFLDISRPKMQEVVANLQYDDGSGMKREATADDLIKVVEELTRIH

Row | inhibition at 0.2 µM (CDK4; Calu-1 cells, 200 nM, 16 hours) [%] | inhibition at 10 µM (CDK4; Calu-1 cells, 16 hours) [%] | SMILES | CyclinD1 Degradation (200 nM) (cyclin D1) | CyclinD1 Degradation (10 μM) (cyclin D1) | inhibition at 0.2 µM (CDK4; Calu-1, 16 h) [%]
1 | 30 to 50 |  | CC(=O)c1c(C)c2cnc(Nc3ccc(N4CCN(CC(=O)NCCOCCOCCNc5cccc(C(=O)Nc6nc(C)c(C)s6)c5C)CC4)cn3)nc2n(C2CCCC2)c1=O [CPD-104, 3-((2-(2-(2-(2-(4-(6-((6-Acetyl-8-cyclopentyl-5-methyl-7-oxo-7,8-dihydropyrido[2,3-d]pyrimidin-2-yl)amino)pyridin-3-yl)piperazin-1-yl)acetamido)ethoxy)ethoxy)ethyl)amino)-N-(4,5-dimethylthiazol-2-yl)-2-methylbenzamide] | A (protein percentage degradation >=80%) |  | 
2 | < 30 |  | CC(=O)c1c(C)c2cnc(Nc3ccc(N4CCN(CC(=O)NCCOCCOCCC(=O)Nc5ccccc5C(=O)Nc5cn(C)cn5)CC4)cn3)nc2n(C2CCCC2)c1=O [CPD-063, 2-(3-(2-(2-(2-(4-(6-((6-Acetyl-8-cyclopentyl-5-methyl-7-oxo-7,8-dihydropyrido[2,3-d]pyrimidin-2-yl)amino)pyridin-3-yl)piperazin-1-yl)acetamido)ethoxy)ethoxy)propanamido)-N-(1-methyl-1H-imidazol-4-yl)benzamide] | D (protein percentage degradation <30%) |  | 
3 |  | < 30 | Cc1nc(NC(=O)c2ccccc2NC(=O)CCCCCCCNC(=O)CN2CCN(c3ccc(Nc4ncc(F)c(-c5cc(F)c6nc(C)n(C(C)C)c6c5)n4)nc3)CC2)sc1C [CPD-306, N-(4,5-Dimethylthiazol-2-yl)-2-(8-(2-(4-(6-((5-fluoro-4-(4-fluoro-1-isopropyl-2-methyl-1H-benzo[d]imidazol-6-yl)pyrimidin-2-yl)amino)pyridin-3-yl)piperazin-1-yl)acetamido)octanamido)benzamide] |  | D (protein percentage degradation < 30%) | 
4 | 50 to 80 |  | CC(=O)c1c(C)c2cnc(Nc3ccc(N4CCN(CC(=O)NCCOCCOCCC(=O)Nc5cc(N(C)C)ccc5C(=O)Nc5nc(C)c(C)s5)CC4)cn3)nc2n(C2CCCC2)c1=O [CPD-155, 2-(3-(2-(2-(2-(4-(6-((6-Acetyl-8-cyclopentyl-5-methyl-7-oxo-7,8-dihydropyrido[2,3-d]pyrimidin-2-yl)amino)pyridin-3-yl)piperazin-1-yl)acetamido)ethoxy)ethoxy)propanamido)-4-(dimethylamino)-N-(4,5-dimethylthiazol-2-yl)benzamide] | A (protein percentage degradation >=80%) |  | 
5 | > 80 |  | CC(=O)c1c(C)c2cnc(Nc3ccc(N4CCN(CC(=O)NCCOCCOCCC(=O)Nc5ccccc5C(=O)Nc5nc(C(C)C)c(C)s5)CC4)cn3)nc2n(C2CCCC2)c1=O [CPD-070, 2-(3-(2-(2-(2-(4-(6-((6-Acetyl-8-cyclopentyl-5-methyl-7-oxo-7,8-dihydropyrido[2,3-d]pyrimidin-2-yl)amino)pyridin-3-yl)piperazin-1-yl)acetamido)ethoxy)ethoxy)propanamido)-N-(4-isopropyl-5-methylthiazol-2-yl)benzamide] | A (protein percentage degradation >=80%) |  | 
6 | 50 to 80 |  | CC(=O)c1c(C)c2cnc(Nc3ccc(N4CCN(CC(=O)NCCCCCCCCNc5cccc(C(=O)Nc6nc(C)c(C)s6)c5C)CC4)cn3)nc2n(C2CCCC2)c1=O [CPD-090, 3-((8-(2-(4-(6-((6-Acetyl-8-cyclopentyl-5-methyl-7-oxo-7,8-dihydropyrido[2,3-d]pyrimidin-2-yl)amino)pyridin-3-yl)piperazin-1-yl)acetamido)octyl)amino)-N-(4,5-dimethylthiazol-2-yl)-2-methylbenzamide] | A (protein percentage degradation >=80%) |  | 
7 | < 30 |  | CC(=O)c1c(C)c2cnc(Nc3ccc(N4CCN(CC(=O)NCCOCCOCCC(=O)Nc5ccc(Cl)cc5C(=O)Nc5nc(C)c(C)s5)CC4)cn3)nc2n(C2CCCC2)c1=O [CPD-142, 2-(3-(2-(2-(2-(4-(6-((6-Acetyl-8-cyclopentyl-5-methyl-7-oxo-7,8-dihydropyrido[2,3-d]pyrimidin-2-yl)amino)pyridin-3-yl)piperazin-1-yl)acetamido)ethoxy)ethoxy)propanamido)-5-chloro-N-(4,5-dimethylthiazol-2-yl)benzamide] | D (protein percentage degradation <30%) |  | 
8 | 50 to 80 |  | CC(=O)c1c(C)c2cnc(Nc3ccc(N4CCN(CC(=O)NCCOCCOCCC(=O)Nc5ccccc5C(=O)Nc5cc[nH]n5)CC4)cn3)nc2n(C2CCCC2)c1=O [CPD-073, 2-(3-(2-(2-(2-(4-(6-((6-Acetyl-8-cyclopentyl-5-methyl-7-oxo-7,8-dihydropyrido[2,3-d]pyrimidin-2-yl)amino)pyridin-3-yl)piperazin-1-yl)acetamido)ethoxy)ethoxy)propanamido)-N-(1H-pyrazol-3-yl)benzamide] | D (protein percentage degradation <30%) |  | 
9 |  |  | CC(=O)c1c(C)c2cnc(Nc3ccc(N4CCN(CC(=O)NCCOCCOCCOCCNc5ccc(C)c(C(=O)Nc6nc(C)c(C)s6)c5)CC4)cn3)nc2n(C2CCCC2)c1=O [CPD-127, 5-((1-(4-(6-((6-Acetyl-8-cyclopentyl-5-methyl-7-oxo-7,8-dihydropyrido[2,3-d]pyrimidin-2-yl)amino)pyridin-3-yl)piperazin-1-yl)-2-oxo-6,9,12-trioxa-3-azatetradecan-14-yl)amino)-N-(4,5-dimethylthiazol-2-yl)-2-methylbenzamide] | C (protein percentage degradation <50%, and >=30%) |  | 30 to 50
10 |  | < 30 | Cc1nc(NC(=O)c2ccccc2NC(=O)CCNC(=O)CN2CCN(c3ccc(Nc4ncc5cc6n(c5n4)C4(CCCCC4)CNC6=O)nc3)CC2)sc1C [CPD-315, N-(4,5-Dimethylthiazol-2-yl)-2-(3-(2-(4-(6-((6′-oxo-7′,8′-dihydro-6′H-spiro[cyclohexane-1,9′-pyrazino[1′,2′:1,5]pyrrolo[2,3-d]pyrimidin]-2′-yl)amino)pyridin-3-yl)piperazin-1-yl)acetamido)propanamido)benzamide] |  | D (protein percentage degradation < 30%) | 
11 | 50 to 80 |  | CC(=O)c1c(C)c2cnc(Nc3ccc(N4CCN(CC(=O)NCCOCCOCCC(=O)Nc5ccccc5C(=O)Nc5nc(C(F)(F)F)c(C)s5)CC4)cn3)nc2n(C2CCCC2)c1=O [CPD-077, 2-(3-(2-(2-(2-(4-(6-((6-Acetyl-8-cyclopentyl-5-methyl-7-oxo-7,8-dihydropyrido[2,3-d]pyrimidin-2-yl)amino)pyridin-3-yl)piperazin-1-yl)acetamido)ethoxy)ethoxy)propanamido)-N-(5-methyl-4-(trifluoromethyl)thiazol-2-yl)benzamide] | D (protein percentage degradation <30%) |  | 
12 | > 80 |  | CC(=O)c1c(C)c2cnc(Nc3ccc(N4CCN(CC(=O)NCCCCC(=O)Nc5ccccc5C(=O)Nc5nc(C)c(C)s5)CC4)cn3)nc2n(C2CCCC2)c1=O [CPD-174, 2-(5-(2-(4-(6-((6-Acetyl-8-cyclopentyl-5-methyl-7-oxo-7,8-dihydropyrido[2,3-d]pyrimidin-2-yl)amino)pyridin-3-yl)piperazin-1-yl)acetamido)pentanamido)-N-(4,5-dimethylthiazol-2-yl)benzamide] | A (protein percentage degradation >=80%) |  | 
13 | < 30 |  | CC(=O)c1c(C)c2cnc(Nc3ccc(N4CCN(CC(=O)NCCCCCCCCCNC(=O)c5ccc(C(=O)Nc6ncc(C)s6)c(C)c5)CC4)cn3)nc2n(C2CCCC2)c1=O [CPD-024, N^4-(9-(2-(4-(6-((6-Acetyl-8-cyclopentyl-5-methyl-7-oxo-7,8-dihydropyrido[2,3-d]pyrimidin-2-yl)amino)pyridin-3-yl)piperazin-1-yl)acetamido)nonyl)-2-methyl-N^1-(5-methylthiazol-2-yl)terephthalamide] | D (protein percentage degradation <30%) |  | 
